Results: ChEMBL document CHEMBL1201862, “PubChem BioAssay data set” (2004)
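A five-concentration, 48-hour dose response in 96-well plates underlies each endpoint, interpolated linearly between surrounding concentrations. At the GI50, growth is halved.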 Activity calls are given as the source filed them. No stated cut-off is given here; in the data, active = GI50 up to about 1.1 µM and inactive = higher.

Key:
Experiment in all cases: NCI anticancer screen, dose series, 48 h
CAKI-1 = system: CAKI-1
DU-145 = system: DU-145
SF-295 = system: SF-295
UO-31 = system: UO-31
Hs-578T = system: Hs-578T
OVCAR-8 = system: OVCAR-8
SW-620 = system: SW-620
SK-MEL-28 = system: SK-MEL-28
SK-MEL-5 = system: SK-MEL-5
RXF 393 = system: RXF 393
U-251 = system: U-251
HT-29 = system: HT-29
T47D = system: T47D
KM12 = system: KM12
A549 = system: A549
IGROV-1 = system: IGROV-1
SNB-75 = system: SNB-75
MDA-MB-435 = system: MDA-MB-435
SF-539 = system: SF-539
MCF7 = system: MCF7
SF-268 = system: SF-268
HCT-15 = system: HCT-15
SK-MEL-2 = system: SK-MEL-2
OVCAR-3 = system: OVCAR-3
NCI/ADR-RES = system: NCI/ADR-RES
SN12C = system: SN12C
OVCAR-4 = system: OVCAR-4
SNB-19 = system: SNB-19
HCC 2998 = system: HCC 2998
Malme-3M = system: Malme-3M
TK-10 = system: TK-10
HOP-62 = system: HOP-62
HOP-92 = system: HOP-92
NCI-H460 = system: NCI-H460
EKVX = system: EKVX
MDA-MB-231 = system: MDA-MB-231
COLO 205 = system: COLO 205
SK-OV-3 = system: SK-OV-3
MOLT-4 = system: MOLT-4
RPMI-8226 = system: RPMI-8226
PC-3 = system: PC-3
NCI-H23 = system: NCI-H23
ACHN = system: ACHN
786-0 = system: 786-0
LOX IMVI = system: LOX IMVI
UACC-62 = system: UACC-62
HCT-116 = system: HCT-116
NCI-H226 = system: NCI-H226
OVCAR-5 = system: OVCAR-5
M14 = system: M14
UACC-257 = system: UACC-257
CCRF-CEM = system: CCRF-CEM
SR = system: SR
K562 = system: K562
MDA-N = system: MDA-N
NCI-H522 = system: NCI-H522
HL-60 = system: HL-60
A498 = system: A498

## C=C1N(C=O)C(C)(C)N(O)C1(C)C
CAKI-1
  GI50: > 100 µM (inactive)
DU-145
  GI50: > 100 µM (inactive)
SF-295
  GI50: > 100 µM (inactive)
UO-31
  GI50: > 100 µM (inactive)
Hs-578T
  GI50: > 100 µM (inactive)
OVCAR-8
  GI50: > 100 µM (inactive)
SW-620
  GI50: > 100 µM (inactive)
SK-MEL-28
  GI50: > 100 µM (inactive)
SK-MEL-5
  GI50: > 100 µM (inactive)
RXF 393
  GI50: > 100 µM (inactive)
U-251
  GI50: > 100 µM (inactive)
HT-29
  GI50: > 100 µM (inactive)
T47D
  GI50: > 100 µM (inactive)
KM12
  GI50: > 100 µM (inactive)
A549
  GI50: > 100 µM (inactive)
IGROV-1
  GI50: > 100 µM (inactive)
SNB-75
  GI50: > 100 µM (inactive)
MDA-MB-435
  GI50: > 100 µM (inactive)
SF-539
  GI50: > 100 µM (inactive)
MCF7
  GI50: > 100 µM (inactive)
SF-268
  GI50: > 100 µM (inactive)
HCT-15
  GI50: > 100 µM
SK-MEL-2
  GI50: > 100 µM (inactive)
OVCAR-3
  GI50: > 100 µM (inactive)
NCI/ADR-RES
  GI50: > 100 µM (inactive)
SN12C
  GI50: > 100 µM (inactive)
OVCAR-4
  GI50: > 100 µM (inactive)
SNB-19
  GI50: > 100 µM (inactive)
HCC 2998
  GI50: > 100 µM (inactive)
Malme-3M
  GI50: > 100 µM (inactive)
TK-10
  GI50: > 100 µM (inactive)
HOP-62
  GI50: > 100 µM (inactive)
HOP-92
  GI50: > 100 µM (inactive)
NCI-H460
  GI50: > 100 µM (inactive)
EKVX
  GI50: > 100 µM (inactive)
MDA-MB-231
  GI50: > 100 µM (inactive)
COLO 205
  GI50: > 100 µM (inactive)
SK-OV-3
  GI50: > 100 µM (inactive)
MOLT-4
  GI50: 29.1 µM (inactive)
RPMI-8226
  GI50: > 100 µM (inactive)
PC-3
  GI50: > 100 µM (inactive)
NCI-H23
  GI50: > 100 µM (inactive)
ACHN
  GI50: > 100 µM (inactive)
786-0
  GI50: > 100 µM (inactive)
LOX IMVI
  GI50: > 100 µM (inactive)
UACC-62
  GI50: > 100 µM (inactive)
HCT-116
  GI50: > 100 µM (inactive)
NCI-H226
  GI50: > 100 µM (inactive)
OVCAR-5
  GI50: > 100 µM (inactive)
M14
  GI50: > 100 µM (inactive)
UACC-257
  GI50: > 100 µM (inactive)

## Clc1ccc(-c2nnc(C34CC5CC(CC(C5)C3)C4)o2)cc1
CAKI-1
  GI50: > 100 µM (inactive)
DU-145
  GI50: > 100 µM (inactive)
SF-295
  GI50: > 100 µM (inactive)
UO-31
  GI50: 3.78 µM (inactive)
CCRF-CEM
  GI50: > 100 µM (inactive)
Hs-578T
  GI50: > 100 µM (inactive)
OVCAR-8
  GI50: > 100 µM (inactive)
SW-620
  GI50: > 100 µM (inactive)
SK-MEL-28
  GI50: > 100 µM (inactive)
SK-MEL-5
  GI50: > 100 µM (inactive)
RXF 393
  GI50: > 100 µM (inactive)
U-251
  GI50: > 100 µM (inactive)
HT-29
  GI50: > 100 µM (inactive)
T47D
  GI50: > 100 µM (inactive)
SR
  GI50: > 100 µM (inactive)
A549
  GI50: > 100 µM (inactive)
IGROV-1
  GI50: > 100 µM (inactive)
SNB-75
  GI50: > 100 µM (inactive)
MDA-MB-435
  GI50: > 100 µM (inactive)
SF-539
  GI50: > 100 µM (inactive)
SF-268
  GI50: > 100 µM (inactive)
HCT-15
  GI50: > 100 µM
SK-MEL-2
  GI50: > 100 µM (inactive)
OVCAR-3
  GI50: > 100 µM (inactive)
NCI/ADR-RES
  GI50: > 100 µM (inactive)
SN12C
  GI50: > 100 µM (inactive)
K562
  GI50: > 100 µM (inactive)
OVCAR-4
  GI50: > 100 µM (inactive)
SNB-19
  GI50: > 100 µM (inactive)
HCC 2998
  GI50: > 100 µM (inactive)
Malme-3M
  GI50: > 100 µM (inactive)
HOP-62
  GI50: > 100 µM (inactive)
HOP-92
  GI50: > 100 µM (inactive)
NCI-H460
  GI50: > 100 µM (inactive)
EKVX
  GI50: > 100 µM (inactive)
MDA-MB-231
  GI50: > 100 µM (inactive)
MDA-N
  GI50: > 100 µM (inactive)
COLO 205
  GI50: > 100 µM (inactive)
SK-OV-3
  GI50: > 100 µM (inactive)
MOLT-4
  GI50: > 100 µM (inactive)
RPMI-8226
  GI50: > 100 µM (inactive)
PC-3
  GI50: > 100 µM (inactive)
NCI-H522
  GI50: > 100 µM (inactive)
NCI-H23
  GI50: > 100 µM (inactive)
ACHN
  GI50: > 100 µM (inactive)
HL-60
  GI50: > 100 µM (inactive)
A498
  GI50: > 100 µM (inactive)
786-0
  GI50: > 100 µM (inactive)
LOX IMVI
  GI50: > 100 µM (inactive)
UACC-62
  GI50: > 100 µM (inactive)
HCT-116
  GI50: > 100 µM (inactive)
NCI-H226
  GI50: > 100 µM (inactive)
OVCAR-5
  GI50: > 100 µM (inactive)
M14
  GI50: > 100 µM (inactive)
UACC-257
  GI50: > 100 µM (inactive)

## Nc1ccc(S(=O)(=O)Nc2ncccn2)cc1 [SULFADIAZINE, SILVER]
CCRF-CEM
  GI50: 1.82 µM (inactive)
K562
  GI50: 2.12 µM (inactive)
NCI-H522
  GI50: 1.77 µM (inactive)
